This passage reports IC50 results from patent publication US20260078120A1, “SUBSTITUTED PYRIDOPYRIMIDINONES” (MIRATI THERAPEUTICS, INC., priority 2022, published 2026).

Where two headings read alike, the source gives them in different places. Bounds are passed on as bounds.

What all share (type): cell-based
The test system of test [1] is T47D (PI3Kα H1047R mutant) cells. Briefly: Inhibition of pAKT formation, alphaLISA SureFire Ultra AKT 1/2/3 (pS473), T47D cells. The conditions noted are these: T47D (PI3Kα H1047R mutant) cells, inhibition of pAKT (pS473) formation, approximately one hour or 24 hours treatment, read-out: T47D pAKT (H1047R mutant) IC50. The method, then: The ability of a compound of Formula (I) to inhibit the formation of pAKT was measured using alphaLISA Surefire Ultra AKT 1/2/3 (pS473) Assay Kit (#ALSU-PAKT-B50K) was obtained from Perkin Elmer (Waltham, MA).
To prepare assay plates for pAKT alphaLISA assays, cells were trypsinized, resuspended in fresh media, and viable cells were counted utilizing trypan blue exclusion. Prior to seeding, cells were washed with PBS and resuspended in HBSS (Gibco, #14025092). T47D (12,000/w), SKBR3(12,000/w), or MKN1(24,000/w) cells were seeded at 12 μl per well in a solid white flat bottom 384 cell culture plate (Perkin Elmer #6007680).
Immediately after seeding, cells were dosed using an Echo Liquid Handler (Beckman Coulter) with compounds at a […] starting concentration and serially diluted (1:4) for a total of 10 concentrations. […] Cells were incubated with the compounds (solubilized in DMSO) for approximately one hour or 24 hours at 37° C. After one hour (or 24 hours) of treatment, cells were lysed with 3 μl of the 5× lysis buffer (provided and incubated at room temperature for 15 min on a microtiter plate shaker). Once cells were sufficiently lysed, 7.5 μl of the acceptor bead mix (made using the manufacturers recommended dilutions) was added to each well and left on the microtiter plate shaker for 1 min prior to incubating plates at room temperature for one hour, in the absence of light. After one hour of incubation with the acceptor bead mix, 7.5 μl of the donor bead mix (made using the manufacturers recommended dilutions) was added to each well and left on the microtiter plate shaker for 1 min prior to incubating plates at room temperature overnight in the absence of light. Plates were then imaged the following day using a CLARIOstar microplate reader (BMG Labtech, Germany).
Percent of control values were calculated by subtracting the average signal from the positive control (alpelisib) treated wells from all treated wells (including DMSO control wells) and then divided by the average signal from the vehicle DMSO treated control wells. Percent of vehicle control values were plotted as log (inhibitor) vs. response-Variable slope (four parameters) for curve fitting and IC50 values were determined using XLfit.
Key: N.D. =not determined
Inhibition of pAKT in T47D (PI3Kα H1047R mutant) cells by Exemplary Compounds of Formula (I)

Test [2] shares this test system. Description: CellTiter-Glo 2.0 luminescent cell viability assay, 72 hours, T47D cells. Particulars: T47D (PI3Kα H1047R mutant) cells, CellTiter-Glo, approximately 72 hours, read-out: T47D (H1047R mutant) Viability IC50. In outline:
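Viability was measured by CellTiter-Glo 2.0 luminescence after approximately 72 h of compound exposure at 37° C. Plating was 1000 cells per well the day before dosing, with ten 1:4 dilutions from a 10 µM top concentration. Values as percent of vehicle were fitted by variable-slope log(inhibitor) regression to give IC50.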

Test [3] has as its system SKBR3 (PI3Kα wild type) cells. Briefly: CellTiter-Glo 2.0 luminescent cell viability assay, 72 hours, SKBR3 cells. Particulars: SKBR3 (PI3Kα wild type) cells, CellTiter-Glo, approximately 72 hours, read-out: SKBR3 (WT) Viability IC50. In outline:
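Viability measured via CTG luminescence following roughly 72 hours of compound exposure at 37° C. Dosing used a 10 um starting concentration diluted 1:4 over 10 points; percent-of-vehicle data fitted with a variable-slope four-parameter model for IC50.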

Take `C[C@@H](Nc1ccccc1C(=O)O)c1cc(F)cn2c(=O)c(C#N)c(N3CCC(F)(F)CC3)nc12` [Example 10-25, (R)-2-((1-(3-cyano-2-(4,4-difluoropiperidin-1-yl)-7-fluoro-4-oxo-4H-pyrido[1,2-a]pyrimidin-9-yl)ethyl)amino)benzoic acid]: the concentration for half-maximal inhibition (IC50) in test [1] (Homo sapiens, T47D) was 4.69 nM; in test [2] (Homo sapiens, T47D, 72 h) it was 49.6 nM; in test [3] (Homo sapiens, SK-BR-3, 72 h) it was > 10000 nM.
Take `Cc1cc([C@@H](C)Nc2ccc(F)nc2C(=O)O)c2nc(N3Cc4ccccc4C3)c(C)c(=O)n2c1` [Example 10-29, (R)-6-fluoro-3-((1-(2-(isoindolin-2-yl)-3,7-dimethyl-4-oxo-4H-pyrido[1,2-a]pyrimidin-9-yl)ethyl)amino)picolinic acid]: the IC50 in test [1] (Homo sapiens, T47D) was 0.54 nM; in test [2], 53.9 nM; in test [3] it was > 10000 nM.
Turning to `Cc1cc([C@@H](C)Nc2ccc(Cl)nc2C(=O)O)c2nc(N3Cc4ccccc4C3)c(C)c(=O)n2c1` [Example 10-30, (R)-6-chloro-3-((1-(2-(isoindolin-2-yl)-3,7-dimethyl-4-oxo-4H-pyrido[1,2-a]pyrimidin-9-yl)ethyl)amino)picolinic acid], the IC50 in test [1] (Homo sapiens, T47D) was 3.62 nM; in test [2], 55 nM; in test [3], > 10000 nM.
`Cc1cc([C@@H](C)Nc2ccccc2C(=O)O)c2nc(N3CCC(F)(F)[C@@H]3C)c(C#N)c(=O)n2c1` [Example 10-31, 2-(((R)-1-(3-cyano-2-((S)-3,3-difluoro-2-methylpyrrolidin-1-yl)-7-methyl-4-oxo-4H-pyrido[1,2-a]pyrimidin-9-yl)ethyl)amino)benzoic acid]: the IC50 in test [1] (Homo sapiens, T47D) is 6.39 nM; in test [2] (Homo sapiens, T47D, 72 h) it was 55.1 nM; in test [3] (Homo sapiens, SK-BR-3, 72 h) it was > 10000 nM.
The corresponding values for `Cc1cc([C@@H](C)Nc2ccccc2C(=O)O)c2nc(N3CCC(F)(F)[C@H]3C)c(C#N)c(=O)n2c1` [Example 10-32, 2-(((R)-1-(3-cyano-2-((R)-3,3-difluoro-2-methylpyrrolidin-1-yl)-7-methyl-4-oxo-4H-pyrido[1,2-a]pyrimidin-9-yl)ethyl)amino)benzoic acid] are 5.78 nM, 67.3 nM and > 10000 nM.
The corresponding values for `Cc1cc([C@@H](C)Nc2ccccc2C(=O)O)c2nc(N3CCN(c4nccs4)CC3)c(C)c(=O)n2c1` [Example 10-33, (R)-2-((1-(3,7-dimethyl-4-oxo-2-(4-(thiazol-2-yl)piperazin-1-yl)-4H-pyrido[1,2-a]pyrimidin-9-yl)ethyl)amino)benzoic acid] are 2.19 nM, 56.5 nM and > 10000 nM.
On the same counts, the results for `Cc1cc([C@@H](C)Nc2ccccc2C(=O)O)c2nc(N3CCN(c4ccccn4)CC3)c(C)c(=O)n2c1` [Example 10-34, (R)-2-((1-(3,7-dimethyl-4-oxo-2-(4-(pyridin-2-yl)piperazin-1-yl)-4H-pyrido[1,2-a]pyrimidin-9-yl)ethyl)amino)benzoic acid] are 1.38 nM, 56.6 nM and > 10000 nM.
Regarding `Cc1cc([C@@H](C)Nc2ccccc2C(=O)O)c2nc(N3CCN(c4ccc(C#N)c5cc(C#N)ccc45)CC3)c(C)c(=O)n2c1` [Example 10-35, (R)-2-((1-(2-(4-(4,6-dicyanonaphthalen-1-yl)piperazin-1-yl)-3,7-dimethyl-4-oxo-4H-pyrido[1,2-a]pyrimidin-9-yl)ethyl)amino)benzoic acid], the 50% inhibitory concentration (IC50) in test [1] (Homo sapiens, T47D) was found to be 4.72 nM; in test [2] (Homo sapiens, T47D, 72 h) it was 56.7 nM; in test [3] (Homo sapiens, SK-BR-3, 72 h), 7950 nM.
As for `Cc1cc([C@@H](C)Nc2ccccc2C(=O)O)c2nc(N3CCN(c4ccc(F)cc4)CC3)c(C)c(=O)n2c1` [Example 10-36, (R)-2-((1-(2-(4-(4-fluorophenyl)piperazin-1-yl)-3,7-dimethyl-4-oxo-4H-pyrido[1,2-a]pyrimidin-9-yl)ethyl)amino)benzoic acid], the IC50 in test [1] (Homo sapiens, T47D) was 3.8 nM; in test [2] (Homo sapiens, T47D, 72 h), 57 nM; in test [3] (Homo sapiens, SK-BR-3, 72 h), > 10000 nM.
Regarding `Cc1cc([C@@H](C)Nc2ccccc2C(=O)O)c2nc(NC3CC(F)(F)C3)c(C#N)c(=O)n2c1` [Example 10-37, (R)-2-((1-(3-cyano-2-((3,3-difluorocyclobutyl)amino)-7-methyl-4-oxo-4H-pyrido[1,2-a]pyrimidin-9-yl)ethyl)amino)benzoic acid], the IC50 in test [1] (Homo sapiens, T47D) is 2.19 nM; in test [2] (Homo sapiens, T47D, 72 h), 57.4 nM; in test [3] (Homo sapiens, SK-BR-3, 72 h), > 10000 nM.
The corresponding values for `Cc1cc([C@@H](C)Nc2ccccc2C(=O)O)c2nc(N3CCN(c4cccnc4)CC3)c(C)c(=O)n2c1` [Example 10-38, (R)-2-((1-(3,7-dimethyl-4-oxo-2-(4-(pyridin-3-yl)piperazin-1-yl)-4H-pyrido[1,2-a]pyrimidin-9-yl)ethyl)amino)benzoic acid] are 1.97 nM, 57.9 nM and > 10000 nM.
For `C[C@@H](Nc1ccccc1C(=O)O)c1cc(F)cn2c(=O)c(C#N)c(N3Cc4ccccc4C3)nc12` [Example 10-39, (R)-2-((1-(3-cyano-7-fluoro-2-(isoindolin-2-yl)-4-oxo-4H-pyrido[1,2-a]pyrimidin-9-yl)ethyl)amino)benzoic acid], the IC50 in test [1] (Homo sapiens, T47D) is 1.7 nM; in test [2] (Homo sapiens, T47D, 72 h) it was 59 nM; in test [3] (Homo sapiens, SK-BR-3, 72 h), > 10000 nM.
On the same counts, the results for `Cc1cc([C@@H](C)Nc2ccccc2C(=O)O)c2nc(N3CCN(c4ccc(F)cc4)CC3)c(C#N)c(=O)n2c1` [Example 10-40, (R)-2-((1-(3-cyano-2-(4-(4-fluorophenyl)piperazin-1-yl)-7-methyl-4-oxo-4H-pyrido[1,2-a]pyrimidin-9-yl)ethyl)amino)benzoic acid] are 1.91 nM, 60 nM and > 10000 nM.
As for `Cc1cc([C@@H](C)Nc2ccccc2C(=O)O)c2nc(N3CCN(c4ccc(C#N)cc4)[C@@H](C)C3)c(C#N)c(=O)n2c1` [Example 10-41, 2-(((R)-1-(3-cyano-2-((S)-4-(4-cyanophenyl)-3-methylpiperazin-1-yl)-7-methyl-4-oxo-4H-pyrido[1,2-a]pyrimidin-9-yl)ethyl)amino)benzoic acid], the IC50 in test [1] (Homo sapiens, T47D) is 7.18 nM; in test [2] (Homo sapiens, T47D, 72 h) it was 60.2 nM; in test [3] (Homo sapiens, SK-BR-3, 72 h), > 10000 nM.
With `Cc1cc([C@@H](C)Nc2ccccc2C(=O)O)c2nc(N3CCN(c4ccc(C#N)cc4)C[C@H]3C)c(C)c(=O)n2c1` [Example 10-42, 2-(((R)-1-(2-((R)-4-(4-cyanophenyl)-2-methylpiperazin-1-yl)-3,7-dimethyl-4-oxo-4H-pyrido[1,2-a]pyrimidin-9-yl)ethyl)amino)benzoic acid], the concentration for half-maximal inhibition (IC50) was determined as 3.09 nM in test [1], 61.5 nM in test [2] and 9870 nM in test [3].
Regarding `Cc1cc([C@@H](C)Nc2ccccc2C(=O)O)c2nc(N3Cc4ccccc4C3)c(C#N)c(=O)n2c1` [Example 10-43, (R)-2-((1-(3-cyano-2-(isoindolin-2-yl)-7-methyl-4-oxo-4H-pyrido[1,2-a]pyrimidin-9-yl)ethyl)amino)benzoic acid], the IC50 in test [1] (Homo sapiens, T47D) was 2.52 nM; in test [2] (Homo sapiens, T47D, 72 h), 62.2 nM; in test [3] (Homo sapiens, SK-BR-3, 72 h), > 10000 nM.
On the same counts, the results for `Cc1cc([C@@H](C)Nc2ccccc2C(=O)O)c2nc(N3CC(C)C(F)(F)C3)c(C#N)c(=O)n2c1` (stereo partly drawn) [Example 10-44, 2-(((1R)-1-(3-cyano-2-(3,3-difluoro-4-methylpyrrolidin-1-yl)-7-methyl-4-oxo-4H-pyrido[1,2-a]pyrimidin-9-yl)ethyl)amino)benzoic acid] are 1.47 nM, 62.5 nM and 5030 nM.
